Measured values taken from patent publication US20070060551A1, “Methods of using isothiazole derivatives to treat cancer or inflammation” (QLT, Inc., priority 2002, published 2007).
One block for each compound: values may come before it.

Tests used:
PTPN12 = biological target: T1, PTPN12 (Homo sapiens, UniProt Q05209); assay: PTPN12 in vitro phosphatase assay (malachite green phosphate release); type: biochemical; conditions: for % Inhibition of PTPN12: at 20 μm concentration
T1 construct: Expression of human truncated PTPN12 (PTP-PEST-N) as a fusion protein; made in house; host or cells: E. coli strain ER2566 (IMPACT vector pTWIN-II)
T1 sequence (Q05209 28-293 limits assumed): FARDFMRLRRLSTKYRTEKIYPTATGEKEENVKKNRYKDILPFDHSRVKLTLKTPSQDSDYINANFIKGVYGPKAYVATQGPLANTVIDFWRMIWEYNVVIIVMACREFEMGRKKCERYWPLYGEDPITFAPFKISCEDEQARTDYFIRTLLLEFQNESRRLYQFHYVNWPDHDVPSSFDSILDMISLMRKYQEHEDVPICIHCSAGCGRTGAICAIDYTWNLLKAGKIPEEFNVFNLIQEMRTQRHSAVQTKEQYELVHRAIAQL
Protocol: Expression of human truncated PTPN12 (PTP-PEST-N) as a fusion protein required that the cDNA be ligated into the polyclonal site situated in frame and upstream of the intein gene of the IMPACT™ expression vector pTWIN-II. The truncated version was used as it was far easier to handle and gave parallel results to the full length protein in comparison testing. For the purpose of simplicity, PTP-PEST-N will be used interchangeably with PTPN12 in these Examples.
Biochemical analysis is performed on recombinant human PTPN12 fusion protein. […] This activity is considered to be in the high range as compared to other recombinant protein tyrosine phosphatases. PTPN12 preparations were subsequently used extensively in in vitro assays for the initial discovery of compounds having the ability to inhibit PTPN12 activity.
Compounds were tested in the following assay for their ability to inhibit the activity of the desired phosphatase.
The enzyme (phosphatase) activity was determined in a reaction that measured phosphate relase from tyrosine phospho-specific peptides using a method first described by Harder et al., Biochem. J. (1994), Vol. 298, pp. 395-401. This is a non-radioactive method for measuring free phosphate by the malachite green method first described by Van Veldhoven and Mannaerts, Anal Biochem. (1987), Vol.161, pp. 45-48. 10× assay buffer (250 mM Tris:100 mM, β-Mercaptoethanol, 50 mM EDTA; pH 7.2) was diluted to 5× concentration with distilled H2O (dH2O). Then 71.4 μM of substrate working stock solution was prepared in dH2O.
In a Falcon 96 well plate the sample compound was diluted in 1% DMSO (One mL DMSO (Sigma, Cat. # D-8779) dissolved in 99 mL dH2O and stored at room temperature) such that the concentration of the sample compound working stock solution is ten times the final desired concentration of the compound in the assay.
The negative control consisted of 5 μl 1% DMSO and 35 μL substrate working stock solution and 10 μL diluted enzyme, per well), and was placed in the first column of wells on the plate. The last column of wells on the plate was reserved for an enzyme blank, which consisted of 5 μL 1% DMSO, 35 μL substrate working stock solution, and 10 μL 5× assay buffer, per well. Test samples were placed in columns 2-11 and consisted of 5 μL sample in 1% DMSO, 35 μL substrate working stock solution, and 10 μL of diluted enzyme, per well, at the desired concentration. Using the repeater function of a Biohit™ multichannel pipettor, 5 μL of 100 μM sample from the Falcon plate columns was added to corresponding Costar™ assay plate columns.
Using a multichannel pipettor, 35 μL of 71.4 μM ppC-SRC 60 substrate was added to all assay wells, then 10 μL of appropriately diluted enzyme was added to the wells on a column by column basis, pausing 5 seconds between columns. Timing started at the first addition.
The assay plate was incubated at room temperature (21° C.) for 15 minutes. The reaction was “stopped” by adding 100 μL colour reagent on a column by column basis, pausing 5 seconds between columns. Colour was allowed to develop for at least 15 minutes, but no longer than two hours, at room temperature. The plate was “read” on Bio-tek Instruments EL312e™ microplate Bio-Kinetics™ reader at 590 nm and the data collected as per instrument manual.
The blank and negative controls were read, and blanks were subtracted from the average of negative control values and sample values, and the % inhibition was expressed by the following formula: % Inhibition=100−[corrected sample reading/corrected Negative Control reading*100].

caspase-3 = biological target: T2, caspase-3 (Homo sapiens, UniProt P42574); assay: Caspase-3 selectivity assay (Calbiochem kit, colorimetric); type: biochemical
T2 construct: purchased Calbiochem
T2 sequence (P42574 29-175 limits assumed): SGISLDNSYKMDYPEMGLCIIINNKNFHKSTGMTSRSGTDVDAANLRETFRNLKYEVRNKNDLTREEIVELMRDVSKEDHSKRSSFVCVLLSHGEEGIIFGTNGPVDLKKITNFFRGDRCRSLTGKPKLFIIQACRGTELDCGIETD
T2 sequence (P42574 176-277 limits assumed): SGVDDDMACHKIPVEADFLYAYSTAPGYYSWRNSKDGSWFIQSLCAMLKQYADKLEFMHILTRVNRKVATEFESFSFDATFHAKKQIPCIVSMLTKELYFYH
Text: This is a selectivity assay, which provides information about the specificity of the compounds. A cysteine residue located within the active pocket of the catalytic domain that is conserved between the […] like caspase-3 and the protein tyrosine phosphatases like PTPN12 has a thiol group within this cysteine amino acid that may interact with specific R-groups with inhibiting compounds with in vitro enzyme inhibiting activity. Also, caspase inhibition can prevent apoptosis from occurring in some cases via the caspase cascade. As the potential for cross-inhibitory activity and nonselectivity exists, the caspase-3 assay is performed on PTN12 inhibitors.
The Calbiochem caspase-3 assay kit was utilized according to package insert instructions. The assay is useful for screening for caspase-3 inhibitors measuring the protease activity of caspase-3 and other caspase-3-like activities. Cleavage is monitored calorimetrically by measuring the increase in absorbance at 405 nm. Assays were performed in a 96-well microtiter plate format.

various cell lines = assay: Cytotoxicity assay (calcein AM cell viability); type: cell-based; conditions: approximately 24 hours incubation
Text: This procedure is used to assess the effects compounds have on various cell lines with respect to cell viability. Cell viability is quantified using calcein AM and measuring its conversion to a fluorescent product (calcein) with a fluorimeter.
The principle of this assay is based on the presence of ubiquitous intracellular esterase activity found in live cells. By enzymatic reaction of esterase, non-fluorescent cell-permeant calcein AM is converted to the intensely fluorescent calcein. The polyanionic dye calcein is retained within live cells, producing a green fluorescence in live cells. […]
Cells were collected from tissue culture flasks and trypsinized, centrifuged, resuspended and counted. […]
The calcein AM solution is prepared by added 50 μg of calcein AM crystal (m.w. =994.87 g/mol, Molecular Probes, Eugene, Oreg.) and Anhydrous DMSO (Sigma Aldrich) to make 1 mM stock and diluting stock to 2× the final desired concentration in 1× DPBS just before the assay. […] Fluorescence data was read and recorded (Fluoroskan Ascent® FL fluorimeter (excitation˜485nm, emission˜527nm)).
The values for replicates (usually six) are averaged and % inhibition is calculated as follows: % inhibition=100−[(AVG treatment−AVG positive control)/(AVG negative control−AVG positive control)*100]

SMILES: CSc1nsc(SCc2ccccc2)c1C(N)=O [5-Benzylsulfanyl-3-methylsulfanyl-isothiazole-4-carboxylic acid amide]
- IC50 (PTPN12; PTPN12, unit inferred): 1500 nM
- inhibition at 20 µM (PTPN12; at 20 μM (Table 2)): 94%
- % Inhibition of Caspase 3 (caspase-3; at 10 μm): 4 at 10 μm %
- % Inhibition of Caspase 3 (caspase-3; at 100 μm): 14 at 100 μm %
- cytotoxicity (cell viability, calcein AM) (various cell lines): no cytotoxicity

SMILES: CSc1nsc(SC)c1C(=O)N1CCCCC1 [(3,5-Bis-methylsulfanyl-isothiazol-4-yl)-piperidin-1-yl-methanone]
- % Inhibition of PTPN12 (PTPN12): 51%

Second part, the compound after the results:

- % Inhibition of PTPN12 (PTPN12): 73%
SMILES: N#Cc1c(SCC(=O)Nc2ccc(S(N)(=O)=O)cc2)nsc1SCC(=O)Nc1ccc(S(N)(=O)=O)cc1 [2-{4-Cyano-3-[(4-sulfamoyl-phenylcarbamoyl)-methylsulfanyl]-isothiazol-5-ylsulfanyl}-N-(4-sulfamoyl-phenyl)-acetamide]

- % Inhibition of PTPN12 (PTPN12): 63%
SMILES: CS(=O)(=O)c1nsc(S(C)(=O)=O)c1C(=O)NC(=O)Nc1ccccc1Cl [1-(3,5-Bis-methanesulfonyl-isothiazole-4-carbonyl)-3-(2-chloro-phenyl)-urea]

- % Inhibition of PTPN12 (PTPN12): 60%
SMILES: CCS(=O)(=O)CCSc1nsc(SCCS(=O)(=O)CC)c1C#N [3,5-Bis-(2-ethanesulfonyl-ethylsulfanyl)-isothiazole-4-carbonitrile]
